Structures can show the parent of a compound that is named as a salt. Where two headings read alike, the source gives them in different places.
Key:
[1] = system: KDM5A/B; test: In vitro cell-based assay: tri-methyl H3K4 immuno-blotting in ZR-75-1 breast cancer cells
Protocol: This quantitative immuno-blotting assay measures the amount tri-methylated histone H3 at amino acid Lysine number 4, a specific substrate […] of the direct enzymatic activity of the histone demethylases KDM5A and KDM5B from extracts of the ZR-75-1 breast cancer cell line.
This assay is a fluorometric immunoassay for the quantification of tri-methyl H3K4 extracted from cells treated with test compound and is used as a measure of the cellular inhibition of KDM5A/B.
Extracts were prepared containing all of the cellular histone material using detergent based lysis and sonication methods. These lysates were subsequently normalized for total protein content using a colorimetric bicinchonic acid assay (MicroBCA Pierce/Thermo Scientific). Normalized cell extracts were then subjected to typical immuno-blotting procedures using NuPage reagents (Life Technologies). Electrophoretically separated histones were then transferred and immobilized using polyvinylidene difluoride membrane (Immobilon-FL Millipore). The amount of tri-methylated lysine 4 of histone H3 was detected using an antibody specific to the tri-methylated state (Cell Signaling Technologies) and quantified on an infrared imager using a densitometry software package (Odyssey CLx, Image Studio, Li-Cor). This background subtracted densitometry value was reported as a ration of the GAPDH amount for that sample and then calculated as a percent of the DMSO treated sample. The software package XL-fit (IDBS) was then used to calculate a relative IC50 value for the dilution series of a given test compound according to the equation: fit=(D+((Vmax*(x^n))/((x^n)+(Km^n)))).

[2] = molecular target: Jarid1B (Homo sapiens (Human), UniProt Q9UGL1); test: Jarid1B in vitro enzyme inhibition assay (TR-FRET); type: biochemical
[3] = molecular target: Jarid1A (Homo sapiens (Human), UniProt P29375); test: Jarid1A in vitro enzyme inhibition assay (TR-FRET); type: biochemical
[4] = 72 hours, read-out: Cellular IC50
[5] = read-out: Cellular IC50, 72 hours

Sequence of Jarid1B (Q9UGL1 2-751): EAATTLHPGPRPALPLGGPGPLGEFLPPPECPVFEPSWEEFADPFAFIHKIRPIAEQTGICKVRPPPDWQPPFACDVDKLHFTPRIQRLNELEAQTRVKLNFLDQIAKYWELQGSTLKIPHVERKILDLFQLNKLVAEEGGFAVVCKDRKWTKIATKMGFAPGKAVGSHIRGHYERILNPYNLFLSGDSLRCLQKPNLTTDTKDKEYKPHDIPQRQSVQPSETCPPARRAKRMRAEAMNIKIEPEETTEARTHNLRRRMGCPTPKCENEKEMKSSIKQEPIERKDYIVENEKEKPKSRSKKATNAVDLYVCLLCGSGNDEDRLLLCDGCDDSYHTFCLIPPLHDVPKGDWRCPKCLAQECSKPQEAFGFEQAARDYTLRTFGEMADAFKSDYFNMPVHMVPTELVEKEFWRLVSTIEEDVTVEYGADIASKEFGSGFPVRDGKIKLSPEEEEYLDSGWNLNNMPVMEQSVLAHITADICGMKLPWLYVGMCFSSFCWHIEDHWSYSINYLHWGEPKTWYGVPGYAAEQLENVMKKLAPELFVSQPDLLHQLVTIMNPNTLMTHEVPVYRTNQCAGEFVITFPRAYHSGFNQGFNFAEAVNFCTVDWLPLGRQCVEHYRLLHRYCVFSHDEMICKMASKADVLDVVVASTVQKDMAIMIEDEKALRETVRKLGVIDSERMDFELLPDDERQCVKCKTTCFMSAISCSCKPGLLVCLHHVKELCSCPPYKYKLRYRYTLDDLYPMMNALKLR
Sequence of Jarid1A (P29375 1-1090): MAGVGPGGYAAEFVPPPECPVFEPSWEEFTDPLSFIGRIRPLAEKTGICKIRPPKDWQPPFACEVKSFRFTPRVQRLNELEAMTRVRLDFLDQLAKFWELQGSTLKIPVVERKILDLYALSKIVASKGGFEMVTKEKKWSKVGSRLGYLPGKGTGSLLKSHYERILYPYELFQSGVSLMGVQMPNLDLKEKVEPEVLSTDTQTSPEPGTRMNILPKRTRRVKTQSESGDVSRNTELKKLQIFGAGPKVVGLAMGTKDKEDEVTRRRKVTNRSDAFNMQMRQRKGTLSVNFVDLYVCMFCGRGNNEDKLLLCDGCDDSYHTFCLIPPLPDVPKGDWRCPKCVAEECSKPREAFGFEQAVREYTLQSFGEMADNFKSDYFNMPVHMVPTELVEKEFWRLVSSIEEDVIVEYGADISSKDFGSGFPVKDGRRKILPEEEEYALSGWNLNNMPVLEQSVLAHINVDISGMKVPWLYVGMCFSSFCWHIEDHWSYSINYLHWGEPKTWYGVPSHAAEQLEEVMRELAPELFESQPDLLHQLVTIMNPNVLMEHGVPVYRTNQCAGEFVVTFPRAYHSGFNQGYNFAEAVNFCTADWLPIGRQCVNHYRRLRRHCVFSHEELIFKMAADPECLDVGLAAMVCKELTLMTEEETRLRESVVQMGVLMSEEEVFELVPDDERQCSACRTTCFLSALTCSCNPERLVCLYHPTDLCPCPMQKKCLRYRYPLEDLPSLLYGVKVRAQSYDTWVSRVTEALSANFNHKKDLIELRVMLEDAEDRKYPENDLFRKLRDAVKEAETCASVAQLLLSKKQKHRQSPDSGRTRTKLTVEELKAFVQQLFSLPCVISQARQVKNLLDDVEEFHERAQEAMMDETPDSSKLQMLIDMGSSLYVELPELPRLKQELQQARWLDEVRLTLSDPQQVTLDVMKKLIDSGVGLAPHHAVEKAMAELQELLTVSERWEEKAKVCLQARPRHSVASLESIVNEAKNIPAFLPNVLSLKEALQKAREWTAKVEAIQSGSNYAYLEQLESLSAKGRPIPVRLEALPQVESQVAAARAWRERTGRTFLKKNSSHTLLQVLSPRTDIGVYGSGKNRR

SMILES	IC50 [1, 4]	IC50 [2]	IC50 [3]	IC50 [1, 5]
O=C(O)c1ccncc1Nc1nn(CC2CCCC2)c2ccc(F)cc12 [Example 30, 3-{[1-(cyclopentylmethyl)-5-fluoro-1H-indazol-3-yl]amino}pyridine-4-carboxylic acid]	1000 to 10000 nM	< 100 nM	< 100 nM	
O=C(O)c1ccncc1Nc1nn(C2CCOC2)c2ccc(Cl)cc12 (centres unmarked) [Example 69, 3-{[5-chloro-1-(tetrahydrofuran-3-yl)-1H-indazol-3-yl]amino}pyridine-4-carboxylic acid]	1000 to 10000 nM	< 100 nM	< 100 nM	
CC(C)Cn1nc(Nc2cnccc2C(=O)NC#N)c2cc(F)ccc21 [Example 75, N-cyano-3-{[5-fluoro-1-(2-methylpropyl)-1H-indazol-3-yl]amino}pyridine-4-carboxamide]		< 100 nM	< 100 nM	
O=C(O)c1ccncc1Nc1nn(CC2CC2)c2ccc(F)cc12 [Example 16, 3-{[1-(cyclopropylmethyl)-5-fluoro-1H-indazol-3-yl]amino}pyridine-4-carboxylic acid]	1000 to 10000 nM	< 100 nM	< 100 nM	
O=C(O)c1ccncc1Nc1cn(CCC(F)(F)F)c2ccc(Cl)cc12 [Example 59, 3-{[5-chloro-1-(3,3,3-trifluoropropyl)-1H-indol-3-yl]amino}pyridine-4-carboxylic acid]	1000 to 10000 nM	< 100 nM	< 100 nM	
CCCn1nc(Nc2cnccc2C(=O)O)c2cc(C)ccc21 [Example 38, 3-[(5-methyl-1-propyl-1H-indazol-3-yl)amino]pyridine-4-carboxylic acid]		< 100 nM	< 100 nM	
O=C(O)c1ccncc1Nc1nn(CCC(F)(F)F)c2ccc(F)cc12 [Example 32, 3-{[5-fluoro-1-(3,3,3-trifluoropropyl)-1H-indazol-3-yl]amino}pyridine-4-carboxylic acid]	100 to 1000 nM	< 100 nM	< 100 nM	
CCC(C)n1nc(Nc2cnccc2C(=O)O)c2cc(F)ccc21 (centres unmarked) [Example 26, 3-{[5-fluoro-1-(butan-2-yl)-1H-indazol-3-yl]amino}pyridine-4-carboxylic acid]	1000 to 10000 nM	< 100 nM	< 100 nM	
O=C(O)c1ccncc1Nc1nn(CCc2ccccc2)c2ccc(F)cc12 [Example 19, 3-{[5-fluoro-1-(2-phenethyl)-1H-indazol-3-yl]amino}pyridine-4-carboxylic acid]	> 10000 nM	< 100 nM	< 100 nM	
O=C(O)c1ccncc1Nc1nn(CC2CC2)c2ccc(Cl)cc12 [Example 34, 3-{[5-chloro-1-(cyclopropylmethyl)-1H-indazol-3-yl]amino}pyridine-4-carboxylic acid]	1000 to 10000 nM	< 100 nM	< 100 nM	
O=C(O)c1ccncc1Nc1nn(C2CCCOC2)c2ccc(F)cc12 (centres unmarked) [Example 63, 3-{[5-fluoro-1-(tetrahydro-2H-pyran-3-yl)-1H-indazol-3-yl]amino}pyridine-4-carboxylic acid]		< 100 nM	< 100 nM	
N#CNC(=O)c1ccncc1Nc1nn(CCN2CCCC2)c2ccc(Cl)cc12 [Example 79, N-cyano-3-({5-chloro-1-[2-(pyrrolidin-1-yl)ethyl]-1H-indazol-3-yl}amino)pyridine-4-carboxamide]		< 100 nM	< 100 nM	
O=C(O)c1ccncc1Nc1nn([C@@H]2CCNC2)c2ccc(F)cc12 [Example 61, 3-({5-fluoro-1-[(3R)-pyrrolidin-3-yl]-1H-indazol-3-yl}amino)pyridine-4-carboxylic]	1000 to 10000 nM			
Cn1nc(Nc2cnccc2C(=O)O)c2ccc(F)cc21 [Example 6, 3-[(6-fluoro-1-methyl-1H-indazol-3-yl)amino]pyridine-4-carboxylic acid]	1000 to 10000 nM			
O=C(O)c1ccncc1Nc1nn([C@H]2CCNC2)c2ccc(F)cc12 [Example 60, 3-({5-fluoro-1-[(3S)-pyrrolidin-3-yl]-1H-indazol-3-yl}amino)pyridine-4-carboxylic acid]	1000 to 10000 nM			
O=C(O)c1ccncc1Nc1cn(C2CCOC2)c2ccc(F)cc12 (centres unmarked) [Example 68, 3-{[5-fluoro-1-(tetrahydrofuran-3-yl)-1H-indol-3-yl]amino}pyridine-4-carboxylic acid]		< 100 nM	< 100 nM	
N#CNC(=O)c1ccncc1Nc1nn(CCN2CCC(F)(F)CC2)c2ccc(F)cc12 [Example 74, N-cyano-3-({1-[2-(4,4-difluoropiperidin-1yl)ethyl]-5-fluoro-1H-indazol-3-yl}amino)pyridine-4-carboxamide]		< 100 nM	< 100 nM	
CN(C)CCCCn1nc(Nc2cnccc2C(=O)NC#N)c2cc(F)ccc21 [Example 76, N-cyano-3-({1-[4-(dimethylamino)butyl]-5-fluoro-1H-indazol-3-yl}amino)pyridine-4-carboxamide]		< 100 nM	< 100 nM	
N#CNC(=O)c1ccncc1Nc1nn(CCN2CCC(F)(F)C2)c2ccc(F)cc12 [Example 72, N-cyano-3-({1-[2-(3,3-difluoropyrrolidin-1yl)ethyl]-5-fluoro-1H-indazol-3-yl}amino)pyridine-4-carboxamide]		< 100 nM	< 100 nM	
O=C(O)c1ccncc1Nc1nn(C2CCOCC2)c2ccc(F)cc12 [Example 62, 3-{[5-fluoro-1-(tetrahydro-2H-pyran-4-yl)-1H-indazol-3-yl]amino}pyridine-4-carboxylic acid]		< 100 nM	< 100 nM	
Cc1ccc2c(c1)c(Nc1cnccc1C(=O)O)nn2C [Example 12, 3-[(1,5-dimethyl-1H-indazol-3-yl)amino]pyridine-4-carboxylic acid]	100 to 1000 nM			
CNCCCCCn1nc(Nc2cnccc2C(=O)O)c2cc(F)ccc21 [Example 46, 3-({5-fluoro-1-[5-(methylamino)pentyl]-1H-indazol-3-yl}amino)pyridine-4-carboxylic acid, trifluoroacetic acid salt]				> 10000 nM
Cc1ccc2c(c1)c(Nc1cnccc1C(=O)O)nn2CCC(F)(F)F [Example 39, 3-{[5-methyl-1-(3,3,3-trifluoropropyl)-1H-indazol-3-yl]amino}pyridine-4-carboxylic acid]		< 100 nM	< 100 nM	
CCn1nc(Nc2cnccc2C(=O)O)c2cc(C)ccc21 [Example 36, 3-[(1-ethyl-5-methyl-1H-indazol-3-yl)amino]pyridine-4-carboxylic acid]		< 100 nM	< 100 nM	
CN(C)CC#CCn1nc(Nc2cnccc2C(=O)O)c2cc(F)ccc21 [Example 49, 3-({1-[4-(dimethylamino)but-2-yn-1-yl]-5-fluoro-1H-indazol-3-yl}amino)pyridine-4-carboxylic acid, trifluoroacetic acid salt]				> 10000 nM
N#CNC(=O)c1ccncc1Nc1nn([C@H]2CCOC2)c2ccc(F)cc12 [Example 70, N-cyano-3-({5-fluoro-1-[(3S)-tetrahydrofuran-3-yl]-1H-indazol-3-yl}amino)pyridine-4-carboxamide]		< 100 nM	< 100 nM	
CCCn1cc(Nc2cnccc2C(=O)O)c2cc(F)ccc21 [Example 57, 3-[(5-fluoro-1-propyl-1H-indol-3-yl)amino]pyridine-4-carboxylic acid]		< 100 nM	< 100 nM	
